Measurements: ChEMBL document CHEMBL1955732, “Synthesis and biological evaluation of 21-arylidenepregnenolone derivatives as neuroprotective agents” (Bioorg Med Chem Lett, 2012)
The source made the active and inactive calls. No cut-off for these calls is given here.

Key:
Format in all cases: functional
PC-12 [1] = experiment: Neuroprotective activity against Abeta25-35-induced […] cells assessed as cell viability at 10 uM preincubated for 2 hrs prior Abeta25-35 challenge measured after 24 hrs by MTT assay; conditions: Rattus norvegicus, read-out: Activity
PC-12 [2] = experiment: Neuroprotective activity against Abeta25-35-induced […] cells assessed as cell viability at 1 uM preincubated for 2 hrs prior Abeta25-35 challenge measured after 24 hrs by MTT assay; conditions: Rattus norvegicus
SH-SY5Y = experiment: Neuroprotective activity against oxygen-glucose deprivation-induced human SH-SY5Y cells assessed as cell viability at 10 uM preincubated for 2 hrs prior oxygen-glucose deprivation challenge for 1 hr measured after 24 hrs incubation under normal condition by MTT assay; conditions: read-out: Activity

What does the source list for `COc1ccccc1/C=C/C(=O)[C@H]1CC[C@H]2[C@@H]3C[C@@H]4O[C@@]45C[C@@H](O)CC[C@]5(C)[C@H]3CC[C@]12C`?
viability at 10 µM (PC-12 [1]): 73.7%; Activity (PC-12 [2]): inactive; viability at 10 µM (SH-SY5Y): 98.7%
